Measured values reported in patent US20230142274A1 (SIMCERE PHARMACEUTICAL CO., LTD., priority 2020, published 2023).

Each molecule was assayed on Daudi cells (assay: Inhibition of human Daudi lymphoma cell proliferation (Cell-Titer Glo)). Conditions: 3 days incubation, read-out: Anti-Proliferative Activity Against Daudi cells IC50.
Format: cell-based
Description: Introduction of the experimental principle: After the RAD51 inhibitor to be tested was co-incubated with cancer cells for a period of time, the influence of the test compound on cell proliferation was measured by a method for counting cell proliferation based on the quantitative measurement of intracellular ATP content.
Materials and Cells: Daudi cells were purchased from ATCC; fetal bovine serum, 1640 medium and penicillin-streptomycin were purchased from Gibco Inc. (U.S.), 96-well plates were purchased from Corning Inc. (U.S.), and Cell-Titer Glo reagent was purchased from Promega Corporation (U.S.).
Cell culture: Daudi cells were cultured in 1640 culture medium containing 10% fetal bovine serum and 1% penicillin-streptomycin at 37° C. in an atmosphere containing 5% CO2. Cells in logarithmic growth phase could be used for experiments.
Assay of cell proliferation and viability: Cell-Titer Glo reagent was used to measure the inhibitory activities of the compounds on the proliferation of Daudi cell strain. The concentration of cells was adjusted, and the cells were seeded in a 96-well plate and cultured at 37° C. in an atmosphere containing 5% CO2 for 24 hours. The powder of the compound was dissolved in 100% DMSO to form a 10 mM solution. 10 μl of the solution of the compound was aspirated and transferred into a 96-well compound plate containing 20 μl of DMSO solution for 3-fold dilution and was then formulated into 10 serial dilutions. Thereafter, 2 μl of the solution of the compound was aspirated from the corresponding well and added correspondingly into a 96-well intermediate compound dilution plate containing 78 μl of complete culture medium in each well. The resultant was mixed well, and the plate was centrifuged at 1000 rpm for 1 minute. Finally, 10 μl of the solution of the compound was aspirated from the corresponding well of the 96-well intermediate compound dilution plate, and transferred into the corresponding well of the cell culture plate containing 90 μl of complete culture medium. The final concentration of DMSO was 0.25%. After the addition of the compound, the cells were continued to be incubated for 3 days at 37° C. in an atmosphere containing 5% CO2. Cell-Titer Glo reagent was added to measure cell viability.
% Compound inhibition was calculated and IC50 of the compound was filled;
% Compound inhibition=1−100%×(Signal−Bottom)/(Top−Bottom)
Molecule `COc1ccc(-c2ccc(-c3cnc([C@H]4CC[C@H](NC(=O)OC(C)C)CC4)s3)c([S@](=N)(=O)C3CC3)c2)cn1` (stereo in doubt) [Example 94-1, isopropyl trans-((4-(5-(2-((R)-cyclopropanesulfonimidoyl))-4-(6-methoxypyridin-3-yl)phenyl)thiazol-2-yl)cyclohexyl)carbamate] has an IC50 of 60 nM.

Same assay, conditions: Homo sapiens, 72 h, 3 days incubation, read-out: Anti-Proliferative Activity Against Daudi cells IC50
For `Cc1cc(Nc2ccc(-c3ccc([C@H]4CC[C@@H](NC(=O)OC(C)C)CC4)s3)c(S(=O)(=O)C3CC3)c2)n[nH]1` [Example 89-1, isopropyl cis-(4-(5-(2-(cyclopropylsulfonyl)-4-((5-methyl-1H-pyrazol-3-yl)amino)phenyl)thiophen-2-yl)cyclohexyl)carbamate], the IC50 was 127 nM.
`CC(C)OC(=O)NC1CCC(c2ncc(-c3ccc(N4CCCO4)cc3S(=N)(=O)C3CC3)s2)CC1` (stereo not drawn) [Example 64, isopropyl trans-(4-(5-(2-(cyclopropanesulfonimidoyl)-4-(isoxazolidin-2-yl)phenyl)thiazol-2-yl)cyclohexyl)carbamate] showed an IC50 of 5200 nM.
`CC(C)OC(=O)N[C@H]1CC[C@H](c2ncc(-c3ccc(Nc4cnn(CCF)c4)cc3S(=N)(=O)C3COC3)s2)CC1` (stereo partly drawn) [Example 106, isopropyl trans-N-[4-[5-[4-[[1-(2-fluoroethyl)pyrazol-4-yl]amino]-2-(oxetan-3-ylsulfonimidoyl)phenyl]thiazol-2-yl]cyclohexyl]carbamate] gave an IC50 of 40 nM.
In the case of `COc1ccc(Nc2ccc(-c3cnc([C@H]4CC[C@H](NC(=O)OC(C)C)CC4)s3)c(S(=O)(=O)C3CC3)c2)nc1` [Example 78, isopropyl trans-(4-(5-(2-(cyclopropylsulfonyl)-4-((5-methoxypyridin-2-yl)amino)phenyl)thiazol-2-yl)cyclohexyl)carbamate], the IC50 is reported as 4 nM.
`CC(C)OC(=O)N[C@H]1CC[C@H](c2ncc(-c3ccc(Nc4nnco4)cc3S(=N)(=O)C3CC3)s2)CC1` (stereo partly drawn) [Example 100, isopropyl trans-(4-(5-(4-((1,3,4-oxadiazol-2-yl)amino)-2-(cyclopropanesulfonimidoyl)phenyl)thiazol-2-yl)cyclohexyl)carbamate] showed an IC50 of 680 nM.
`CCNC(=O)c1ccc(-c2cnc([C@H]3CC[C@H](NC(=O)OC(C)C)CC3)s2)c(S(=O)(=O)C2CC2)c1` [Example 111, isopropyl trans-(4-(5-(2-(cyclopropylsulfonyl)-4-(ethylcarbamoyl)phenyl)thiazol-2-yl)cyclohexyl)carbamate] was tested, and the IC50 was 700 nM.
In the case of `COc1ccc(Nc2ccc(-c3cnc([C@H]4CC[C@H](NC(=O)OC(C)C)CC4)s3)c(S(=O)(=O)C3COC3)c2)cn1` [Example 113, isopropyl trans-N-[4-[5-[4-[(6-methoxy-3-pyridyl)amino]-2-(oxetan-3-ylsulfonyl)phenyl]thiazol-2-yl]cyclohexyl]carbamate], the IC50 is reported as 16 nM.
In the case of `CC(C)OC(=O)N[C@H]1CC[C@H](c2ncc(-c3ccc(Nc4ccon4)cc3S(=O)(=O)NC(C)(C)C)s2)CC1` [Example 30, isopropyl trans-(4-(5-(2-(N-(tert-butyl)sulfamoyl)-4-(isoxazol-3-ylamino)phenyl)thiazol-2-yl)cyclohexyl)carbamate], the IC50 is reported as 2650 nM.
`CC(C)OC(=O)N[C@H]1CC[C@H](c2ncc(-c3ccc(Nc4cn[nH]c4)cc3S(=O)(=O)C3CC3)s2)CC1` [Example 71] was tested, and the IC50 was 16 nM.
`Cc1cc(Nc2ccc(-c3ccc([C@H]4CC[C@H](NC(=O)OC(C)C)CC4)s3)c(S(=O)(=O)C3CC3)c2)n[nH]1` [Example 89, isopropyl trans-(4-(5-(2-(cyclopropylsulfonyl)-4-((5-methyl-1H-pyrazol-3-yl)amino)phenyl)thiophen-2-yl)cyclohexyl)carbamate] gave an IC50 of 7 nM.
For `Cc1cc(Nc2ccc(-c3cnc(-c4ccc(NC(=O)OC(C)C)cc4)s3)c(S(=O)(=O)C3CC3)c2)n[nH]1` [Example 61], the IC50 was 104 nM.
Work on `CC(C)OC(=O)Nc1ccc(-c2cnc(N3CCC4(CC3)CN(C(=O)OC(C)C)C4)s2)c(S(=O)(=O)NC(C)(C)C)c1` [Example 8, isopropyl 7-(5-(2-(N-(tert-butyl)sulfamoyl)-4-((isopropoxycarbonyl)amino)phenyl)thiazol-2-yl)-2,7-diazaspiro[3.5]nonane-2-carboxylate] yielded an IC50 of 3950 nM.
`CC(C)OC(=O)NC1CCC(c2ncc(-c3ccc(Nc4ccc(F)cn4)cc3S(=O)(=O)C3CC3)s2)CC1` (stereo not drawn) [Example 75, isopropyl trans-N-[4-[5-[2-cyclopropylsulfonyl]-4-[(5-fluoro-2-pyridyl)amino]phenyl]thiazol-2-yl]cyclohexyl]carbamate] gave an IC50 of 22 nM.
`Cc1cc(Nc2ccc(-c3ncc([C@H]4CC[C@H](NC(=O)OC(C)C)CC4)s3)c(S(=O)(=O)C3CC3)c2)n[nH]1` [Example 91, isopropyl trans-(4-(2-(2-(cyclopropylsulfonyl)-4-((5-methyl-1H-pyrazol-3-yl)amino)phenyl)thiazol-5-yl)cyclohexyl)carbamate] gave an IC50 of 1500 nM.
With `CC(C)OC(=O)N[C@H]1CC[C@H](c2ncc(-c3ccc(Oc4ccccn4)cc3S(=O)(=O)C3CC3)s2)CC1` [Example 83, isopropyl trans-(4-(5-(2-(cyclopropylsulfonyl)-4-(pyridin-2-yloxy)phenyl)thiazol-2-yl)cyclohexyl)carbamate] the IC50 was 200 nM.
Work on `Cc1cc(Nc2ccc(-c3cnc([C@H]4CC[C@H](NC(=O)OC(C)C)CC4)s3)c(S(=O)(=O)C3CC3)c2)n(C)n1` [Example 116, isopropyl trans-(4-(5-(2-(cyclopropylsulfonyl)-4-((1,3-dimethyl-1H-pyrazol-5-yl)amino)phenyl)thiazol-2-yl)cyclohexyl)carbamate] yielded an IC50 of 4 nM.
`CC(C)OC(=O)N[C@H]1CC[C@H](c2ncc(-c3ccc(Nc4ccc(=O)[nH]c4)cc3S(=N)(=O)C3CC3)s2)CC1` (stereo partly drawn) [Example 95, isopropyl trans-(4-(5-(2-(cyclopropanesulfonimidoyl)-4-((6-oxo-1,6-dihydropyridin-3-yl)amino)phenyl)thiazol-2-yl)cyclohexyl)carbamate] gave an IC50 of 132 nM.
`CC(C)OC(=O)N[C@H]1CC[C@H](c2ncc(-c3ccc(Nc4cc(C(F)(F)F)[nH]n4)cc3S(=O)(=O)C(C)C)s2)CC1` [Example 46] gave an IC50 of 390 nM.
`CC(C)OC(=O)N[C@H]1CC[C@H](c2ncc(-c3ccc(Nc4ccc(C(F)(F)F)cn4)cc3S(=N)(=O)C3CC3)s2)CC1` (stereo partly drawn) [Example 82] was tested, and the IC50 was 250 nM.
`CC(C)OC(=O)Nc1ccc(-c2cnc([C@H]3CC[C@H](NC(=O)OC(C)C)CC3)s2)c(P2(=O)CCCC2)c1` [Example 27, isopropyl trans-N-[4-[2-[4-(isopropoxycarbonylamino)cyclohexyl]thiazol-5-yl]-3-(1-oxophospholan-1-yl)phenyl]carbamate] was tested, and the IC50 was 680 nM.
For `CC(C)OC(=O)Nc1ccc(-c2cnc(N3CCCC(NC(=O)OC(C)C)CC3)s2)c(S(=O)(=O)NC(C)(C)C)c1` (stereo not drawn) [Example 11, isopropyl N-[3-(tert-butylsulfamoyl)-4-[2-[4-(isopropoxycarbonylamino)azepan-1-yl]thiazol-5-yl]phenyl]carbamate], the IC50 was 2540 nM.
`Cc1cc(Nc2ccc(-c3nc4c(s3)CCN(C(=O)OC(C)C)CC4)c(S(=O)(=O)C3CC3)c2)n[nH]1` [Example 108, isopropyl 2-(2-(cyclopropylsulfonyl)-4-((5-methyl-1H-pyrazol-3-yl)amino)phenyl)-7,8-dihydro-4H-thiazolo[4,5-d]aza-6(5H)-carboxylate] was tested, and the IC50 was 468 nM.
Work on `CC(C)OC(=O)Nc1ccc(-c2cnc([C@H]3CC[C@H](NC(=O)OC(C)C)CC3)s2)c(S(=O)(=O)CC(C)(C)C)c1` [Example 24, isopropyl trans-N-[3-(2,2-dimethylpropylsulfonyl)-4-[2-[4-(isopropoxycarbonylamino)cyclohexyl]thiazol-5-yl]phenyl]carbamate] yielded an IC50 of 2270 nM.
`CC(C)OC(=O)NC1CCC(c2ncc(-c3ccc(Nc4ncncn4)cc3S(=O)(=O)C3CC3)s2)CC1` (stereo not drawn) [Example 80, isopropyl trans-N-[4-[5-[2-cyclopropylsulfonyl]-4-(1,3,5-triazin-2-ylamino)phenyl]thiazol-2-yl]cyclohexyl]carbamate] was tested, and the IC50 was 330 nM.
`CC(C)OC(=O)N[C@H]1CC[C@H](c2ncc(-c3ccc(Nc4cccnc4)cc3S(=O)(=O)C3CC3)s2)CC1` [Example 76, isopropyl trans-N-[4-[5-[2-cyclopropylsulfonyl-4-(3-pyridylamino)phenyl]thiazol-2-yl]cyclohexyl]carbamate] was tested, and the IC50 was 9 nM.
With `CCP(=O)(CC)c1cc(NC(=O)OC(C)C)ccc1-c1cnc([C@H]2CC[C@H](NC(=O)OC(C)C)CC2)s1` [Example 23, isopropyl trans-N-[3-diethylphosphoryl-4-[2-[4-(isopropoxycarbonylamino)cyclohexyl]thiazol-5-yl]phenyl]carbamate] the IC50 was 3930 nM.
